From PubChem BioAssay AID248 (DTP/NCI, 2004)
Several values for one entry are separate records, joined by “and”; a condition that tells them apart may be missing. Identical values can stand only once. Toxic doses and inconclusive results are not listed.

System: L1210 leukemia ip in BDF1 mice, survival T/C
Experiment: NCI In Vivo Anticancer Drug Screen. Data for tumor model L1210 Leukemia (intraperitoneal) in B6D2F1 (BDF1) mice
Conditions: endpoint: mean survival time, higher = longer survival
In short: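 Transplantable tumor model; survival measured in treated vs vehicle control mice. Value = treated/control.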

[1] = dose: 50.0 mg/kg/injection, schedule: Q01DX001 (ip), vehicle: carboxymethylcellulose (CMC)
[2] = dose: 100.0 mg/kg/injection, schedule: Q01DX001 (ip), vehicle: carboxymethylcellulose (CMC)
[3] = dose: 100.0 mg/kg/injection, schedule: Q04DX003 (ip), vehicle: Klucel (hydroxypropylcellulose) (HPC)
[4] = dose: 200.0 mg/kg/injection, schedule: Q04DX003 (ip), vehicle: Klucel (hydroxypropylcellulose) (HPC)
[5] = dose: 400.0 mg/kg/injection, schedule: Q04DX003 (ip), vehicle: Klucel (hydroxypropylcellulose) (HPC)
[6] = dose: 75.0 mg/kg/injection, schedule: Q01DX001 (ip), vehicle: saline
[7] = dose: 100.0 mg/kg/injection, schedule: Q01DX001 (ip), vehicle: saline
[8] = dose: 200.0 mg/kg/injection, schedule: Q01DX001 (ip), vehicle: saline
[9] = dose: 400.0 mg/kg/injection, schedule: Q01DX001 (ip), vehicle: saline
[10] = dose: 100.0 mg/kg/injection, schedule: Q04DX003 (ip), vehicle: saline
[11] = dose: 200.0 mg/kg/injection, schedule: Q04DX003 (ip), vehicle: saline
[12] = dose: 100.0 mg/kg/injection, schedule: Q04DX002 (ip), vehicle: Klucel (hydroxypropylcellulose) (HPC)
[13] = dose: 200.0 mg/kg/injection, schedule: Q04DX002 (ip), vehicle: Klucel (hydroxypropylcellulose) (HPC)
[14] = dose: 100.0 mg/kg/injection, schedule: Q01DX009 (ip), vehicle: saline with Tween-80
[15] = dose: 200.0 mg/kg/injection, schedule: Q01DX009 (ip), vehicle: saline with Tween-80

SMILES: CC1(C)N=C(N)N=C(N)N1c1cccc(C#N)c1
- T/C (dose: 7.0 mg/kg/injection, schedule: Q01DX009 (ip), vehicle: saline): 118 % of control
- T/C (dose: 10.0 mg/kg/injection, schedule: Q01DX009 (ip), vehicle: saline): 116 % of control
- T/C (dose: 16.0 mg/kg/injection, schedule: Q01DX009 (ip), vehicle: saline): 113 % of control
- T/C (dose: 17.0 mg/kg/injection, schedule: Q01DX009 (ip), vehicle: saline): 108 % of control
- T/C (dose: 25.0 mg/kg/injection, schedule: Q01DX009 (ip), vehicle: saline): 123 % of control
- T/C (dose: 37.0 mg/kg/injection, schedule: Q01DX009 (ip), vehicle: saline): 151 % of control and 161 % of control
- T/C (dose: 37.5 mg/kg/injection, schedule: Q01DX009 (ip), vehicle: saline): 120 % of control
- T/C (dose: 56.0 mg/kg/injection, schedule: Q01DX009 (ip), vehicle: saline): 172 % of control
- T/C (dose: 84.5 mg/kg/injection, schedule: Q01DX009 (ip), vehicle: saline): 150 % of control

SMILES: COC(=O)CCCc1ccc(N(CCO)CCF)cc1
- T/C (dose: 25.0 mg/kg/injection, schedule: Q01DX001 (ip), vehicle: carboxymethylcellulose (CMC)): 103 % of control
- T/C [1]: 114 % of control
- T/C [2]: 101 % of control
- T/C (dose: 200.0 mg/kg/injection, schedule: Q01DX001 (ip), vehicle: carboxymethylcellulose (CMC)): 106 % of control

SMILES: CCCCCCCCCC(=O)CCCCCC
- T/C (dose: 100.0 mg/kg/injection, schedule: Q01DX009 (ip), vehicle: Klucel (hydroxypropylcellulose) (HPC)): 96 % of control
- T/C [3]: 95 % of control
- T/C (dose: 200.0 mg/kg/injection, schedule: Q01DX009 (ip), vehicle: Klucel (hydroxypropylcellulose) (HPC)): 98 % of control
- T/C [4]: 103 % of control
- T/C (dose: 400.0 mg/kg/injection, schedule: Q01DX009 (ip), vehicle: Klucel (hydroxypropylcellulose) (HPC)): 107 % of control
- T/C [5]: 93 % of control

SMILES: C[N+]1(C)C2CCC1CC(=NO)C2
- T/C [6]: 104 % of control

SMILES: O=S(=O)(C1CC1c1ccccc1)N1CCOCC1 (configuration not stated)
- T/C [7]: 101 % of control
- T/C [8]: 106 % of control
- T/C [9]: 95 % of control

SMILES: Oc1ccccc1-c1nc2ccccc2o1
- T/C (dose: 50.0 mg/kg/injection, schedule: Q04DX002 (ip), vehicle: saline with Tween-80): 98 % of control
- T/C (dose: 100.0 mg/kg/injection, schedule: Q04DX002 (ip), vehicle: saline with Tween-80): 95 % of control
- T/C (dose: 200.0 mg/kg/injection, schedule: Q04DX002 (ip), vehicle: saline with Tween-80): 92 % of control

SMILES: NC(=O)C(O)C(O)C(O)C(O)C(N)=O (configuration not stated)
- T/C (dose: 50.0 mg/kg/injection, schedule: Q01DX009 (ip), vehicle: saline): 100 % of control
- T/C (dose: 100.0 mg/kg/injection, schedule: Q01DX009 (ip), vehicle: saline): 98 % of control
- T/C [10]: 92 % of control
- T/C (dose: 200.0 mg/kg/injection, schedule: Q01DX009 (ip), vehicle: saline): 93 % of control
- T/C [11]: 93 % of control

SMILES: CCCCSP(=S)(Cc1ccccc1)SCCCC
- T/C [3]: 95 % of control
- T/C [4]: 93 % of control

SMILES: CCOC(=O)Nc1cccc(OC(=O)NC)c1
- T/C (dose: 100.0 mg/kg/injection, schedule: Q04DX003 (ip), vehicle: saline with Tween-80): 100 % of control
- T/C (dose: 200.0 mg/kg/injection, schedule: Q04DX003 (ip), vehicle: saline with Tween-80): 107 % of control
- T/C (dose: 400.0 mg/kg/injection, schedule: Q04DX003 (ip), vehicle: saline with Tween-80): 89 % of control

SMILES: CC(C)c1ccccc1OC(=O)NC1CCCCC1
- T/C [12]: 96 % of control
- T/C [13]: 110 % of control
- T/C (dose: 400.0 mg/kg/injection, schedule: Q04DX002 (ip), vehicle: Klucel (hydroxypropylcellulose) (HPC)): 104 % of control

SMILES: CCOC(CN1C(=O)c2ccccc2C1=O)OCC
- T/C (dose: 50.0 mg/kg/injection, schedule: Q01DX009 (ip), vehicle: saline with Tween-80): 96 % of control
- T/C [14]: 96 % of control
- T/C [15]: 93 % of control

SMILES: CCOC(=O)C(C#N)C(C)CC(C)C (configuration not stated)
- T/C (dose: 50.0 mg/kg/injection, schedule: Q01DX001 (ip), vehicle: saline with Tween-80): 102 % of control
- T/C (dose: 100.0 mg/kg/injection, schedule: Q01DX001 (ip), vehicle: saline with Tween-80): 102 % of control
- T/C (dose: 200.0 mg/kg/injection, schedule: Q01DX001 (ip), vehicle: saline with Tween-80): 93 % of control

SMILES: O=P(NC12CC3CC(CC(C3)C1)C2)(c1ccccc1)N1CC1 (configuration not stated)
- T/C [3]: 86 % of control
- T/C [4]: 88 % of control
- T/C [5]: 89 % of control

SMILES: C1CCC2(CC1)CCCCC2
- T/C (dose: 5.0 mg/kg/injection, schedule: Q01DX001 (ip), vehicle: saline): 97 % of control
- T/C (dose: 10.0 mg/kg/injection, schedule: Q01DX001 (ip), vehicle: saline): 103 % of control
- T/C (dose: 20.0 mg/kg/injection, schedule: Q01DX001 (ip), vehicle: saline): 93 % of control
- T/C (dose: 40.0 mg/kg/injection, schedule: Q01DX001 (ip), vehicle: saline): 97 % of control
- T/C (dose: 80.0 mg/kg/injection, schedule: Q01DX001 (ip), vehicle: saline): 100 % of control

SMILES: CC1CCCC(C[N+](C)(C)C)C1=O (configuration not stated)
- T/C [10]: 93 % of control
- T/C [11]: 101 % of control

SMILES: O=C(O)C(=O)c1ccccc1NC(=O)c1ccc(Cl)cc1
- T/C (dose: 50.0 mg/kg/injection, schedule: Q04DX002 (ip), vehicle: Klucel (hydroxypropylcellulose) (HPC)): 101 % of control
- T/C [12]: 93 % of control
- T/C [13]: 93 % of control

SMILES: Cc1ccc(C)c(C(O)C(=O)O)c1 (configuration not stated)
- T/C (dose: 75.0 mg/kg/injection, schedule: Q01DX001 (ip), vehicle: acetone): 101 % of control
- T/C (dose: 150.0 mg/kg/injection, schedule: Q01DX001 (ip), vehicle: acetone): 98 % of control
- T/C (dose: 300.0 mg/kg/injection, schedule: Q01DX001 (ip), vehicle: acetone): 95 % of control

SMILES: Oc1ccccc1-n1c(-c2ccccc2)ccc1-c1ccccc1
- T/C (dose: 50.0 mg/kg/injection, schedule: Q01DX001 (ip), vehicle: saline): 90 % of control
- T/C [7]: 98 % of control
- T/C [8]: 102 % of control
- T/C [9]: 98 % of control

SMILES: Nc1nc(SCc2ccccc2)c2ncn(C3OC(CO)CC3O)c2n1 (configuration not stated)
- T/C (dose: 25.0 mg/kg/injection, schedule: Q01DX009 (ip), vehicle: other): 113 % of control
- T/C [1]: 110 % of control
- T/C (dose: 50.0 mg/kg/injection, schedule: Q01DX009 (ip), vehicle: other): 158 % of control
- T/C [2]: 116 % of control
- T/C (dose: 100.0 mg/kg/injection, schedule: Q01DX009 (ip), vehicle: other): 158 % of control
- T/C (dose: 400.0 mg/kg/injection, schedule: Q01DX001 (ip), vehicle: carboxymethylcellulose (CMC)): 150 % of control
- T/C (dose: 400.0 mg/kg/injection, schedule: Q01DX009 (ip), vehicle: other): 95 % of control
- T/C (dose: 600.0 mg/kg/injection, schedule: Q01DX001 (ip), vehicle: carboxymethylcellulose (CMC)): 155 % of control

SMILES: c1ccc(C(CCCCC(c2ccccc2)c2ccccc2)c2ccccc2)cc1
- T/C [6]: 94 % of control
- T/C (dose: 150.0 mg/kg/injection, schedule: Q01DX001 (ip), vehicle: saline): 92 % of control
- T/C (dose: 300.0 mg/kg/injection, schedule: Q01DX001 (ip), vehicle: saline): 93 % of control

SMILES: COc1cc2c(cc1OC)C13CCN4C=C5CCOC6CC(=O)N2C1C6C5CC43 (configuration not stated)
- T/C (dose: 75.0 mg/kg/injection, schedule: Q01DX001 (ip), vehicle: other): 96 % of control

SMILES: COc1ccc2c(c1)N(C)CCCC2=O
- T/C [10]: 96 % of control
- T/C [11]: 112 % of control
- T/C (dose: 400.0 mg/kg/injection, schedule: Q04DX003 (ip), vehicle: saline): 87 % of control

SMILES: CC(=O)[O][Hg][c]1cc2c(cc1N)C(=O)c1ccccc1-2
- T/C (dose: 12.5 mg/kg/injection, schedule: Q01DX001 (ip), vehicle: carboxymethylcellulose (CMC)): 102 % of control

SMILES: Cc1cc(Br)c2ccccc2c1N(CC(=O)O)S(=O)(=O)c1ccccc1
- T/C (dose: 100.0 mg/kg/injection, schedule: Q01DX001 (ip), vehicle: saline sonified): 97 % of control
- T/C [14]: 91 % of control
- T/C (dose: 200.0 mg/kg/injection, schedule: Q01DX001 (ip), vehicle: saline sonified): 100 % of control
- T/C [15]: 91 % of control
- T/C (dose: 400.0 mg/kg/injection, schedule: Q01DX001 (ip), vehicle: saline sonified): 97 % of control
- T/C (dose: 400.0 mg/kg/injection, schedule: Q01DX009 (ip), vehicle: saline with Tween-80): 97 % of control
